Holding throughout (type): in vivo, human
A short description of data set [1]: Sampling of methadone from exhaled breath using electrostatic filter membrane (250 g/m2 non-woven layer, two carriers). The following applies: for Methadone Range: range among subjects. Here is the method: (§1) Sampling of drugs of abuse from exhaled human breath using filter membrane.
The tests were performed at 4 different occasions.

A short description of data set [2]: Pre-study: sampling of methadone in breath using variable densities of the electrostatic filter membrane. As to conditions: exhaled breath, n=5; for Methadone Range: range among subjects.
Text: as §1
Type is the density of the non-woven layer at each test, the other headlines are the same as for table 1.

Data set [3] in a line: Sampling of methadone in exhaled breath with constructed sampler (tubular section with baffles), two filter thicknesses. As to conditions: for Constructed sampler Methadone Range: n=5.
Text: as §1
The subject exhales through the tubular section comprising baffles to trapping large particles and saliva.

Setting [4] is: filter diameter 32 mm, sampling time 1 min, n=6.
[5] abbreviates: filter diameter 32 mm, sampling time 3 min, n=5 (one of 4 occasions).
The mark [6] stands for this setting: filter diameter 32 mm, sampling time 3 min, n=6 (one of 4 occasions).
The mark [7] stands for this setting: filter diameter 47 mm, sampling time 3 min, n=6.

`CCC(=O)C(CC(C)N(C)C)(c1ccccc1)c1ccccc1` (stereo not drawn) [Methadone, methadone]: the “Methadone pg/min mean ± SD” value in data set [1] (setting [4]) came out at 204 ± 116 pg/min; in data set [1] (setting [5]), 112 ± 89 pg/min; in data set [1] (setting [6]), 92 ± 62 pg/min; in data set [1] (setting [7]) it was 86 ± 52 pg/min; in data set [2] (filter type (density of non-woven layer) 150 g/m2) it was 74.4 ± 80.4 pg/min; in data set [2] (filter type (density of non-woven layer) 250 g/m2), 71.0 ± 90.1 pg/min. The “Methadone pg/min mean ± SD” value in data set [2] (filter type (density of non-woven layer) 300 g/m2) is listed as 91.8 ± 110 pg/min. The “Methadone Range” value in data set [1] (setting [4]) is 21 to 326 pg/min; in data set [1] (setting [5]) it was 47 to 266 pg/min; in data set [1] (setting [6]) it was 28 to 199 pg/min; in data set [1] (setting [7]) it was 18 to 168 pg/min; in data set [2] (filter type 150 g/m2), 24 to 216 pg/min; in data set [2] (filter type 250 g/m2), 19 to 231 pg/min. The “Methadone Range” value in data set [2] (filter type 300 g/m2) was 20 to 287 pg/min. Moreover, the “Constructed sampler Methadone pg/min mean ± SD” value stood at 40 ± 27 pg/min in data set [3] (filter thickness 1, n=5) and 42 ± 28 pg/min in data set [3] (filter thickness 2, n=5). For the same compound, the “Constructed sampler Methadone Range” value in data set [3] (filter thickness 1, range among subjects) fell in the range of 12 to 85 pg/min; in data set [3] (filter thickness 2, range among subjects), 17 to 90 pg/min.
